Measured values from patent US20260325504A1, “Genetically Engineered Human Pituitary Corticotroph Tumor Organoids Exhibit Divergent Responses to Selective Glucocorticoid Receptor Modulators” (Corcept Therapeutics Incorporated, priority 2022, published 2026).
Entries after “also recorded” stand apart in the source; their conditions may differ. Starred links: 1 amine or outer side, 2 acyl side, 3 side chain; linkers in the order of their positions; H or OH if unused. Non-standard residues stand in square brackets, D forms with d. Residues, ends and D or L forms follow the SMILES beside them. Groups on a side chain read outwards from the residue. *: point of attachment. Ethylenediamine = C(CN[*:2])N[*:1]; Hyp = O=C(O)[C@@H]1C[C@@H](O)CN1; Phg = N[C@H](C(=O)O)c1ccccc1; CO = O=C([*:1])[*:2]; Bn = c1ccc(C*)cc1

Columns and labels:
[1] = SST14 and SST28; cited from earlier work
hPITO37 = assay: Dose response of hPITO37; assay type: cell-based, human; conditions: hPITO37, FIG. 12
Procedure: (§1) Sonic Hedgehog (SHH) was withdrawn from the organoid growth media 16 hours prior to treatment. The experimental treatment groups included: vehicle (Veh), mifepristone (500 nM, Selleckchem S2606), GANT61 (5 μM, Stemcell Technologies 73692), ketoconazole (Keto, 10 μM, Selleckchem S1353), pasireotide (Pas, 100 nM, Target Mol TP2207-SB001), octreotide (Oct, 100 nM, Selleckchem P1017), mifepristone plus GANT61, mifepristone plus Keto, mifepristone plus Pas, relacorilant (500 nM, Corcept Therapeutics CORT125134), relacorilant plus Pas, relacorilant plus Oct, or dexamethasone (Dexa, 100 nM, SIGMA S4902). In the combination treatments, cultures were pretreated with the GANT61, Keto, Pas or Oct for 2 hours prior to treatment with mifepristone or Rela. PitNET tissue derived organoids hPITO36, hPITO37, hPITO38, hPITO39, and hPITO40 were treated with the following experimental conditions: Vehicle (1), pasireotide (2), relacorilant (3), relacorilant & pasireotide (4), mifepristone (5), mifepristone & pasireotide (6). The IC50 values used for each hPITO line for each drug were determined based on dose responses (FIG. 12). All organoid cultures were treated for 48 hours prior to analysis.

iPSC^ctrl organoids [2] = assay: ACTH secretion ELISA, iPSCctrl organoids; assay type: cell-based, human; conditions: FIG. 6G
Procedure: as §1
(§2) Organoid conditioned media was collected and ACTH secretion using an ELISA according to the manufacturer's protocol (Novus Biologicals Human ACTH ELISA Kit NBP2-66401). The optical density was measured at a wavelength of 450 nm, and ACTH concentration (pg/mL) was interpolated using a standard curve with a 4-parameter logistic regression analysis using GraphPad Prism (v9.3.1).

ACTH = assay: Spectral flow cytometry, ACTH positive cells, hPITOs; assay type: cell-based, human; conditions: hPITO, pretreatment before mifepristone, FIGS. 9I, J
From the text: 1.3 Generation and Culture of Human PitNET Tissue Organoids (hPITOs)
Patients undergoing planned transsphenoidal surgery for PitNETs were identified in the outpatient neuroendocrinology and neurosurgery clinics and collected by the St. Joseph's Hospital and Barrow Neurological Institute Biobank under the collection protocol PHXA-05TS038, and outcomes data protocol PHXA-0004-72-29 with approval of the Institutional Review Board (IRB) and patient consent. De-identified samples were shipped in collection and transport media (Table 3) to the Zavros laboratory (University of Arizona) for processing within 24 hours of collection. Resected PitNET tissues were washed with Dulbeccos Phosphate Buffered Saline (DPBS) supplemented with 1× Penicillin/Streptomycin, 1× Kanamycin and 1× Amphotericin/Gentamycin, minced into smaller pieces, and incubated with digestion buffer (Dulbecco's Modified Eagle Medium/Nutrient Mixture F-12 (DMEM/F12) supplemented with 0.4% Collagenase 2, 0.1% Hyaluronic Acid, 0.03% Trypsin). The tissue was incubated with Accutase (Thermo Fisher Scientific) for a further 5 minutes, and the cells were pelleted and washed with DPBS supplemented with antibiotics. Dissociated cells were then seeded as Matrigel™ domes in culture dishes and overlaid with growth media (Table 4). Media was replaced every 3 days and organoids were harvested for downstream experiments or passaged after 15 days of culture (FIG. 1B).
Sonic Hedgehog (SHH) was withdrawn from the organoid growth media 16 hours prior to treatment. […] The IC50 values used for each hPITO line for each drug were determined based on dose responses (FIG. 12). […]

[3] = tested on: patients with Cushing's syndrome; conditions: pasireotide monotherapy, patients with CD, cited from earlier work
iPSC^USP48MV organoids [4] = assay: ACTH secretion ELISA, iPSCUSP48 organoids; assay type: cell-based, human; conditions: FIG. 7G
Procedure: as §1, §2

iPSC^USP48MV organoids [5] = assay: EdU uptake (proliferation) in iPSCUSP48MV organoids; assay type: cell-based, human; conditions: 100 nM pretreatment 2 h before mifepristone
Procedure: (§3) iPSCs were stained for pituitary specific hormones including luteinizing hormone (LH), follicle-stimulating hormone (FSH), growth hormone (GH), prolactin (PRL), ACTH, cytokeratin 8/18 (CAM5.2), pituitary transcription factor PIT-1 and neuroendocrine marker Synaptophysin (Table 5). Cultures were immunostained for proliferation marker EdU (Click-IT EdU Alexa Fluor 555 Imaging Kit, Thermo Fisher Scientific C10338). Antibody dilutions were determined based on manufacturer guidelines and antibody titration (Table 5). Staining was conducted according to previously published protocols. Briefly, organoids and iPSCs grown in 8-well glass bottom chamber slides were fixed using 3.7% formaldehyde, washed with DPBS, permeabilized with 0.5% Triton X-100 (SIGMA X-100, PBS-T, 20 min at room temperature), washed with 0.01% PBS-T, and blocked with 2% donkey serum (Jackson Immuno Research 017-000-121) for 1 hour at room temperature. After blocking, primary antibodies were added and incubated overnight at 4° C. Slides were washed with 0.01% PBS-T and incubated with secondary antibodies (Table 5) with Hoechst (Thermo Fisher Scientific H1399) for 1 hour at room temperature. Organoids were washed and stored in PBS at 4° C. until microscopic analysis. High content confocal microscopy was performed using the Nikon Ti2-E Inverted Microscope (with a Crest X-Light V2 L-FOV Spinning Disk Confocal) at the University of Arizona Cancer Center, or a ZEISS LSM880 34 channel Laser Scanning Confocal Microscope at University of Arizona Marley Imaging Core. Fluorescence intensity was quantified as the percentage of marker-positive cells versus total cells, using Nikon Elements Software (Version 5.21.05). Proliferation for each iPSC line was quantified as the percentage of EdU-positive cells versus total cells.
as §1, with “PitNET tissue derived organoids hPITO36, hPITO37, hPITO38, hPITO39, and hPITO40 were treated with the following experimental conditions: Vehicle (1), pasireotide (2), relacorilant (3), relacorilant & pasireotide (4), mifepristone (5), mifepristone & pasireotide (6).” left out, “All organoid cultures were treated for 48 hours prior to analysis.” left out

SSTR5 = conditions: cited from earlier work
iPSC^ctrl organoids [6] = assay: EdU uptake (proliferation) in iPSCctrl organoids; assay type: cell-based, human; conditions: 100 nM pretreatment 2 h before mifepristone
Procedure: as §3
as §1, with “PitNET tissue derived organoids hPITO36, hPITO37, hPITO38, hPITO39, and hPITO40 were treated with the following experimental conditions: Vehicle (1), pasireotide (2), relacorilant (3), relacorilant & pasireotide (4), mifepristone (5), mifepristone & pasireotide (6).” left out, “All organoid cultures were treated for 48 hours prior to analysis.” left out

Compound	half-life [1] [min]	drug response (sensitivity) (hPITO37)	effect on ACTH secretion in response to mifepristone (iPSC^ctrl organoids [2]; 100 nM pretreatment 2 h before mifepristone)	reduction of hormone (ACTH) secretion in combination with relacorilant (iPSC^ctrl organoids [2]; with relacorilant)	effect on mifepristone-induced increase of ACTH expressing cells (ACTH)	patients with normalized cortisol [3]	patients with normalized urinary free cortisol ([3]; two large prospective studies)	effect on ACTH secretion in response to mifepristone (iPSC^USP48MV organoids [4]; iPSCUSP48, 100 nM pretreatment 2 h before mifepristone)	reduction of hormone (ACTH) secretion in combination with relacorilant (iPSC^USP48MV organoids [4]; iPSCUSP48MV, with relacorilant)	effect on proliferative response to mifepristone (EdU uptake) (iPSC^USP48MV organoids [5])	binding to / activation of SSTR5 (SSTR5)	effect on proliferative response to mifepristone (EdU uptake) (iPSC^ctrl organoids [6])
SST	< 3	–	–	–	–	–	–	–	–	–	–	–
NCCCC[C@@H]1NC(=O)[C@@H](Cc2c[nH]c3ccccc23)NC(=O)[C@H](c2ccccc2)NC(=O)[C@@H]2C[C@@H](OC(=O)NCCN)CN2C(=O)[C@H](Cc2ccccc2)NC(=O)[C@H](Cc2ccc(OCc3ccccc3)cc2)NC1=O [pasireotide] (cyclo([Hyp]([CO-Ethylenediamine])[Phg][dW]KY(Bn)F))	–	insensitive	significantly reduced ACTH secretion	greater magnitude compared to that of octreotide plus relacorilant	not inhibited	up to 42%	up to 42%	significantly reduced ACTH secretion	greater magnitude compared to that of octreotide plus relacorilant	no effect	high-affinity binding to SSTR5; also recorded: preferentially binds or activates somatostatin receptor type 5 (SSTR5)	no effect
